Structures are written as SMILES. Starred links: 1 amine or outer side, 2 acyl side, 3 side chain; linkers in the order of their positions; H or OH if unused. Positions of bridges follow the written chain, without caps; N, C: chain ends. Non-standard residues stand in square brackets, D forms with d. Residues, ends and D or L forms follow the SMILES beside them. Adda = CO[C@@H](Cc1ccccc1)[C@@H](C)/C=C(C)/C=C/[C@H](N[*:1])[C@H](C)C(=O)[*:2]; dAsp(3S-Me) = C[C@H](C(=O)[*:3])[C@@H](N[*:1])C(=O)[*:2]; d(γGlu) = O=C(O)[C@@H](CCC(=O)[*:2])N[*:1]; NMeDha = C=C(NC)C(=O)O

One experiment has as its system SMN2 minigene, exon 7. It counts as cell-based.
The next experiment relates to SMN protein. As to the kind of experiment: SMN protein expression in SMA patient fibroblasts (Western blot with anti-SMN antibody). (In general: A western blot detects proteins with antibodies after separation by electrophoresis.)
For another experiment, the system named is tau exon 10 minigene. Type of experiment: cell-based, human.

Take `CN(N=O)c1cc(O)ccc1O` [Dephostatin]: in the experiment on SMN2 minigene, exon 7, the “exon 7 inclusion of SMN2 MG” value is on record as “promote the exon 7 inclusion”. Still for that read-out and setting: the result for `COC[C@@H]([C@H](O)[C@H](O)C(=O)NCC[C@H](C)c1nc(/C=C/C[C@@H]2O[C@]3(C[C@@H](O)[C@@H]2C)O[C@H]([C@H](C[C@H](O)[C@H](C)[C@H](O)[C@H](C)/C=C(C)/C(C)=C/C=C/C(C)=C\C#N)OC)[C@H](OP(=O)(O)O)C3(C)C)co1)N(C)C` [Calyculin A] reads “promote the exon 7 inclusion”. With `CO[C@H]([C@H](O)CC(=O)[C@@H](C)[C@@H](O)CC[C@@H](C)[C@@H]1O[C@]2(CC[C@@H](C)[C@H](CC[C@H](C)C(C)=O)O2)CC[C@@H]1C)[C@H](OC(=O)C[C@@H](O)C1=C(C)C(=O)OC1=O)C(C)C` [Tautomycin], in the experiment with SMN2 minigene, exon 7, the “inclusion of tra2-beta1 dependent enhancers, SMN2-minigene” value is recorded as “promotes inclusion of tra2-beta1 dependent enhancers” and the “tra2-betal-dependent splicing enhancers (SMN2 MG splicing pattern)” value is given as “can be manipulated”. Further, the “SMN Protein formation in human fibroblasts” value in the experiment on SMN protein was “promotes SMN Protein formation”. For the same molecule, in the experiment with tau exon 10 minigene, the “inclusion of tra2-beta1 dependent enhancers, tau exon 10 minigene” value is reported as “promotes inclusion of tra2-beta1 dependent enhancers”. With `C[C@@]12C(=O)OC(=O)[C@]1(C)[C@H]1CC[C@@H]2O1` [Cantharidin], the “exon 7 inclusion of SMN2 MG” value with SMN2 minigene, exon 7 is “promote the exon 7 inclusion”. On the same count and under the same terms, the result for `C=C1C(=O)N[C@H](C)C(=O)N[C@@H](CC(C)C)C(=O)N[C@@H](C(=O)O)[C@H](C)C(=O)N[C@@H](CCCNC(=N)N)C(=O)N[C@@H](/C=C/C(C)=C/[C@H](C)[C@H](Cc2ccccc2)OC)[C@H](C)C(=O)N[C@@H](C(=O)O)CCC(=O)N1C` [Microcystin ―LR, Microcystin-LR] (R[Adda][d(γGlu)][NMeDha][dA]L[dAsp(3S-Me)]-OH; lactam N-7) reads “promote the exon 7 inclusion”.
